Experimental data reported in patent US6013649A, “Thiol sulfone metalloprotease inhibitors” (Monsanto Company, priority 1997, dated 2000).

Assays:
hMMP 13 = target: T1, hMMP 13 (Homo sapiens, UniProt P45452); assay: In vitro metalloprotease inhibition, fluorogenic peptide substrate (recombinant human MMP-13, APMA activated); assay type: biochemical; settings: recombinant human MMP-13, room temperature, pH 7.5, 4 μM substrate
T1 construct: made in house
Protocol: (§1) Briefly, 4-aminophenylmercuric acetate (APMA) or trypsin activated MMPs were incubated with various concentrations of the inhibitor compound at room temperature for 5 minutes (0.02% 2-mercaptoethanol added to buffer for thiol compounds with 5 minutes or overnight incubation).
(§2) More specifically, recombinant human MMP-13 and MMP-1 enzymes were prepared in laboratories of the assignee. MMP-13 was expressed in baculovirus as a proenzyme, and purified first over a heparin agarose column and then over a chelating zinc chloride column. The proenzyme was activated by APMA for use in the assay. MMP-1 expressed in transfected HT-1080 cells was provided by Dr. Howard Welgus of Washington University, St. Louis, Mo. The enzyme was also activated using APMA and was then purified over a hydroxamic acid column.
(§3) The enzyme substrate is a methoxycoumarin-containing polypeptide having the following sequence:
(§4) MCA-ProLeuGlyLeuDpaAlaArgNH^2, wherein MCA is methoxycoumarin and Dpa is 3-(2,4--dinitrophenyl)-L-2,3-diaminopropionyl alanine.
(§5) Assays were carried out at room temperature, and dimethyl sulfoxide (DMSO) at a final concentration of 1 percent was used to dissolve inhibitor compound.
(§6) The assayed inhibitor compound in DMSO/buffer solution was compared to an equal amount of DMSO/buffer with no inhibitor as control using Microfluor™ White Plates (Dynatech). The inhibitor or control solution was maintained in the plate for 10 minutes and the substrate was added to provide a final concentration of 4 μM.
(§7) Inhibition was measured as a reduction in fluorescent intensity as a function of inhibitor concentration, using a Perkin Elmer L550 plate reader. The IC50 values were calculated from those values.

hMMP 1 = target: T2, hMMP 1 (Homo sapiens, UniProt P03956); assay: In vitro metalloprotease inhibition, fluorogenic peptide substrate (recombinant human MMP-1, APMA activated); assay type: biochemical; settings: human MMP-1, room temperature, pH 7.5, 4 μM substrate
T2 construct: host or cells: transfected HT-1080 cells
T2 sequence (P03956 100-469): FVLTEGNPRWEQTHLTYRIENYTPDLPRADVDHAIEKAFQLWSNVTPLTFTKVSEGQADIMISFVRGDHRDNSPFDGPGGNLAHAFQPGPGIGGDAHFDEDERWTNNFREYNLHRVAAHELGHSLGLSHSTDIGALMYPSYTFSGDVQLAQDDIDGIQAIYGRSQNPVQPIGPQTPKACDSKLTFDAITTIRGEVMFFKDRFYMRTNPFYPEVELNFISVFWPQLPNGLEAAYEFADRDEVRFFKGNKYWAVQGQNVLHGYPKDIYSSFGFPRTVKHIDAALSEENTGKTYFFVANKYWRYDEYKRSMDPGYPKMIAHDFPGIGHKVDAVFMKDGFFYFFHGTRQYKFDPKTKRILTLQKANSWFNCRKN
Protocol: as §1, §2, §3, §4, §5, §6, §7

[1] = tested on: neovascularization of the corneal stroma; assay: In vivo angiogenesis assay (corneal micropocket assay, bFGF pellet); design: species or system mouse (C57Bl/6 female); settings: 50 mg/kg bid, po, day five, mouse cornea
Protocol: The study of angiogenesis depends on a reliable and reproducible model for the stimulation and inhibition of a neovascular response. The corneal micropocket assay provides such a model of angiogenesis in the cornea of a mouse. See, A Model of Angiogenesis in the Mouse Cornea; Kenyon, BM, et al., Investigative Ophthalmology & Visual Science, July 1996, Vol. 37, No. 8.
In this assay, uniformly sized Hydron™ pellets containing bFGF and sucralfate were prepared and surgically implanted into the stroma mouse cornea adjacent to the temporal limbus. […]
Mice were dosed on a daily basis for the duration of the assay. […] At day five, the degree of angiogenic inhibition was scored by viewing the neovascular progression with a slit lamp microscope.
The mice were anesthetized and the studied eye was once again proptosed. The maximum vessel length of neovascularization, extending from the limbal vascular plexus toward the pellet was measured. In addition, the contiguous circumferential zone of neovascularization was measured as clock hours, where 30 degrees of arc equals one clock hour. The area of angiogenesis was calculated as follows. […]
The studied mice were thereafter compared to control mice and the difference in the area of neovascularization was recorded.

| SMILES | IC50 (hMMP 13) [nM] | IC50 (hMMP 1) [nM] | inhibition (difference in area of neovascularization vs control mice) [1] [%] |
| --- | --- | --- | --- |
| COc1ccc(S(=O)(=O)CC(C)S)cc1 (racemic) [Example 1, (R,S)1-[(4-methoxyphenyl)-sulfonyl]propane-2-thiol] | 400 | 4000 |  |
| COc1ccc(S(=O)(=O)CCC(C)S)cc1 (racemic) [Example 2, (R,S)-4-[(4-methoxyphenyl)-sulfonyl]butane-2-thiol] | 33 | 8000 |  |
| COC(=O)C(S)CCS(=O)(=O)c1ccc(OC)cc1 (racemic) [Example 10, (R,S)-Methyl-4-[(4-methoxyphenyl)sulfonyl]-2-mercaptobutanoate] | 15 | 4000 |  |
| COc1ccc(S(=O)(=O)CC(CS)NC(=O)CNC(=O)OCc2ccccc2)cc1 (racemic) [Example 33, 2-R,S-(N-carbobenzyloxy-glycyl)amino-3-(4-methoxybenzenesulfonyl)propanethiol] | 42 | 900 |  |
| COc1ccc(S(=O)(=O)[C@@H]2CCC[C@@H](S)C2)cc1 (relative stereo) [Example 7, (R,S)trans-3-[(4-methoxyphenyl)sulfonyl]cyclohexanethiol] |  | 1000 |  |
| O=S(=O)(c1ccc(Sc2ccccc2)cc1)[C@@H]1CCC[C@@H](S)C1 (relative stereo) [Example 38, (R,S)trans-3-[(phenylthio)phenylsulfonyl]cyclohexanethiol] |  | > 10000 |  |
| COc1ccc(S(=O)(=O)C[C@@H](C)CS)cc1 [Example 3, 3-[(4-methoxyphenyl)sulfonyl]-2(S)-methylpropanethiol] |  | > 10000 |  |
| O=S(=O)(CCCS)c1ccc(OCCCc2ccccc2)cc1 [Example 4, 3-[(4-{3-phenylpropyloxy)phenyl}sulfonyl]-propanethiol] | 1000 | > 10000 |  |
| CC(C)(C)OC(=O)COc1ccc(S(=O)(=O)CCCS)cc1 [Example 5] | 400 | > 10000 |  |
| O=C(O)COc1ccc(S(=O)(=O)CCCS)cc1 [Example 6] | > 10000 | > 10000 |  |
| CCCC[C@]1(S(=O)(=O)c2ccc(OC)cc2)CCC[C@@H](S)C1 [Example 8, (R,S)3-butyl-3-[(4-methoxyphenyl)sulfonyl]cyclohexanethiol] | 1300 | > 10000 |  |
| COc1ccc(S(=O)(=O)C2CCC(S)C2)cc1 (stereo not drawn) [Example 9] | 500 |  |  |
| COc1ccc(CS(=O)(=O)CCCS)cc1 [Example 11, (R,S)-3-[(4-methoxybenzyl)-sulfonyl]propane thiol] | > 10000 | > 10000 |  |
| COc1ccc(S(=O)(=O)CCCS)cc1 [Example 13, 3-[(4-methoxyphenyl)sulfonyl]propane-1-thiol] | 70 | 8000 |  |
| COc1ccc(S(=O)(=O)C[C@H](C)CS)cc1 [Example 14, 3-[(4-methoxyphenyl)sulfonyl]-2R-methylpropane-1-thiol] | 190 | 6500 |  |
| COc1ccc(S(=O)(=O)CC(C)(C)CS)cc1 [Example 15, 3-[(4-methoxyphenyl)sulfonyl]-2,2-dimethylpropane-1-thiol] | 700 |  |  |
| CCC(CCS)S(=O)(=O)c1ccc(OC)cc1 (stereo not drawn) [Example 16, 3-[(4-methoxyphenyl)sulfonyl]-pentane-1-thiol] | 4 | 600 |  |

| SMILES | IC50 (hMMP 13) [nM] | IC50 (hMMP 1) [nM] | inhibition (difference in area of neovascularization vs control mice) [1] [%] |
| --- | --- | --- | --- |
| CCCCCCCCCC(CCS)S(=O)(=O)c1ccc(OC)cc1 (stereo not drawn) [Example 17, 3-[(4-methoxyphenyl)sulfonyl]-dodecane-1-thiol] | 210 | > 10000 |  |
| COc1ccc(S(=O)(=O)C(CCS)Cc2ccccc2)cc1 (stereo not drawn) [Example 18, 3-[(4-methoxyphenyl)sulfonyl]-4-phenylbutane-1-thiol] |  | 60 |  |
| COc1ccc(S(=O)(=O)C(C)CCS)cc1 (stereo not drawn) [Example 19, 3-[(4-methoxyphenyl)sulfonyl]-butane-1-thiol] | 200 | 7000 |  |
| CCCC(CCS)S(=O)(=O)c1ccc(OC)cc1 (stereo not drawn) [Example 20, 3-[(4-methoxyphenyl)sulfonyl]hexane-1-thiol] | 7 | 1500 |  |
| CCCCCC(CCS)S(=O)(=O)c1ccc(OC)cc1 (stereo not drawn) [Example 22, 3-[(4-methoxyphenyl)sulfonyl]-octane-1-thiol] | 0.5 | 1100 |  |
| COc1ccc(S(=O)(=O)CCC(S)c2ccccc2)cc1 (stereo not drawn) [Example 24, 3-[(4-methoxyphenyl)sulfonyl]-1-phenylpropane-1-thiol] | 48 | 3500 |  |
| COc1ccc(S(=O)(=O)CCCCS)cc1 [Example 25, 4-[(4--methoxyphenyl)sulfonyl]butane-1-thiol] | 700 | > 10000 |  |
| CCCCOc1ccc(S(=O)(=O)CCCS)cc1 [Example 27, 3-[(4-butoxyphenyl)sulfonyl]propane-1-thiol] | 40 | > 10000 |  |
| CCCCOc1ccc(S(=O)(=O)C(CCS)Cc2ccccc2)cc1 (stereo not drawn) [Example 28, 3-[(4-butoxyphenyl)sulfonyl]-4-phenylbutane-1-thiol] | 1.5 | 9000 |  |
| CCCOc1ccc(S(=O)(=O)CCCS)cc1 [Example 29, 3-[(4-propoxyphenyl)sulfonyl]propanethiol] | 55 | 10000 |  |
| O=S(=O)(CCCS)c1ccccc1 [Example 30, 3-(phenylsulfonyl)propane-1-thiol] | 900 | > 10000 |  |
| CNC(=O)CC(CCS)S(=O)(=O)c1ccc(OC)cc1 (stereo not drawn) [Example 31] | 35 | 4750 |  |
| COc1ccc(S(=O)(=O)CC(CS)NC(C)=O)cc1 (stereo not drawn) [Example 32, N-[1-(mercaptomethyl)-2-[(4-methoxyphenyl)sulfonyl)ethyl)acetamide] | 70 | 4000 |  |
| COc1ccc(S(=O)(=O)CCS)cc1 [Example 34, 1-[(4-methoxyphenyl)sulfonyl]ethane-2-thiol] | 200 | 8000 |  |
| O=S(=O)(CCCS)c1ccc(Oc2ccccc2)cc1 [Example 36, 3-[(4-phenoxy)phenylsulfonyl]propane-1-thiol] | 0.6 | 2400 |  |
| O=S(=O)(CCCS)c1ccc(-c2ccccc2)cc1 [Example 37, 3-[(4-phenyl)phenylsulfonyl]propane-1-thiol] | 170 | > 10000 |  |
| O=C(NCCN1CCOCC1)C(S)CCS(=O)(=O)c1ccc(Oc2ccccc2)cc1 (stereo not drawn) [Example 39] | 0.2 | 370 | 51 |
